Assay results published in patent US9637469B2, “Pyridine derivative” (Teijin Pharma Limited, priority 2012, dated 2017).

Target: T1, human URAT1 (Homo sapiens, UniProt Q96S37)
T1 construct: Full-length cDNA of human URAT1 (hURAT1)
T1 sequence (Q96S37 1-553): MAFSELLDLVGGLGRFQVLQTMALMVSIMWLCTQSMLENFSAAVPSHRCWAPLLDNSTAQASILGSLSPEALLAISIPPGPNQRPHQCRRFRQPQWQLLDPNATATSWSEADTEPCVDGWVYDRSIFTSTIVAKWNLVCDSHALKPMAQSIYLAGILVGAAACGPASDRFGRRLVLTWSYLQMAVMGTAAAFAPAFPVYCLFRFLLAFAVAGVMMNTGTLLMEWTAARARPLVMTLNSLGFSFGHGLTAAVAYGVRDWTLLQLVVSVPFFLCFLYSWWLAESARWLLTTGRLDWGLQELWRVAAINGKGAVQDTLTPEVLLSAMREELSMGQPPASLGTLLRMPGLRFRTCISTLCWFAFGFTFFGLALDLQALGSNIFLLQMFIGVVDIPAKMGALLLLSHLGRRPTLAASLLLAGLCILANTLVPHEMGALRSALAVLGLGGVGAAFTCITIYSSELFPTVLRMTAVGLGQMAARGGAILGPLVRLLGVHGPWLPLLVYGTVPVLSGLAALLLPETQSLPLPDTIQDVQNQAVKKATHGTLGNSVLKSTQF
Test: Test for inhibition of uric acid transport using human URAT1-expressing cells;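 further: three stars up to 0.2 µM two stars 0.2-2 µM one star 2-20 µM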
Assay type: cell-based
Conditions: HEK 293 cells expressing human URAT1, 14C-labeled uric acid 25 μM, uptake 37° C. for 5 min; for IC50: read-out: Inhibitory Activity (IC50 of uric acid transport inhibition)
Experimental: (1) Preparation of the Test Compound
The test compound was dissolved in DMSO (produced by Sigma) to a concentration of 20 mM and was subsequently used by diluting to desired concentrations.
(2) Test for Inhibition of Uric Acid Transport Using Human URAT1-Expressing Cells;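 further: three stars up to 0.2 µM two stars 0.2-2 µM one star 2-20 µM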
Full-length cDNA of human URAT1 (hURAT1) (produced by OriGene Technologies, Inc., NCBI Reference Sequence: NM 144585) was subcloned into an expression vector, pCMV6-Kan/Neo (produced by OriGene Technologies, Inc.), and hURAT1 gene was transfected into human embryonic kidney-derived cells (HEK 293 cells) by liposome method using Lipofectamine 2000 (produced by Invitrogen Corporation), whereupon HEK 293 cells expressing human URAT1 gene were screened by its Geneticin resistance. By a method similar to the following method, functional expression of human URAT1 gene was confirmed by using transport of ^14C-labeled uric acid into the cells as an index.
The HEK 293 cells expressing human URAT1 were seeded in a 24-well cell culture dish to a density of 3×10^5 cells/mL/well and were cultured in Dulbecco's modified Eagle's medium (D-MEM medium) containing 10% fetal bovine serum at 37° C. for 2 days. Thereafter, the following test for inhibition of uric acid transport was performed.
After the medium was removed by aspiration from each well, the medium was replaced with a solution obtained by substituting NaCl in Hank's Balanced Salt Solution (HBSS) with Na gluconate (hereinafter, HBSS/Na-gluconate) and the cells were preincubated at 37° C. for about 10 minutes. HBSS/Na-gluconate was removed by aspiration and a ^14C-uric acid solution that was warmed at 37° C. in advance containing various concentrations of the Example compound described in (1) and a radioactive ligand (^14C-labeled uric acid; final concentration 25 μM) was added and an uptake reaction was carried out by incubating at 37° C. for 5 min. After the incubation, ^14C-labeled uric acid solution was removed by aspiration and the cells were washed three times with ice-cold HBSS. The HEK 293 cells expressing human URAT1 were lysed in 0.2 mol/L aqueous NaOH (hereafter, the cell sample) and the cell samples were collected. The cell sample and a liquid scintillation liquid, ULTIMA GOLD (produced by PerkinElmer, Inc.) were mixed and the radioactivity was measured by a liquid scintillation counter (Beckman Coulter, Inc.).
The uric acid transport rate of the Example compound at each concentration (% of control uptake) was calculated relative to the radioactivity (radioactivity in human URAT1 expressing HEK 293 cells without addition of the Example compound (DMSO addition)) showing URAT1-specific uric acid transport as 100%, and the concentration (IC50) of the Example compound at which the uric acid transport rate is inhibited by 50% was determined. In addition, the symbols (*, **, and ***) in the table represent the following inhibitory activity values: • IC50≦_ 0.2 μM: *** • 0.2 μM<IC50≦2 μM: ** • 2 μM<IC50≦20 μM: *

| Inhibitory Activity (IC50 of uric acid transport inhibition) | IC50 | SMILES |
| --- | --- | --- |
| * * |  | O=C(O)c1c(C2=CCCC2)nc(-c2cccnc2)n1Cc1cc(Cl)ccc1Cl [Compound A103, 4-(1-cyclopenten-1-yl)-1-(2,5-dichlorobenzyl)-2-(pyridin-3-yl)-1H-imidazole-5-carboxylic acid] |
| * * * |  | C#Cc1nc(-c2cncc(Cl)c2)n(Cc2cc(Cl)ccc2Cl)c1C(=O)O [Compound A209, 2-(5-chloropyridin-3-yl)-1-(2,5-dichlorobenzyl)-4-ethynyl-1H-imidazole-5-carboxylic acid] |
|  | 2 to 20 µM | O=C(O)/C=C/c1cnc(-c2cccnc2)n1Cc1cc(Cl)ccc1Cl [Compound A260] |
| * * * |  | O=C(O)c1c(Cl)nc(-c2cccnc2)n1Cc1cc(Cl)ccc1Cl [Compound A88, 4-chloro-1-(2,5-dichlorobenzyl)-2-(pyridin-3-yl)-1H-imidazole-5-carboxylic acid] |
| * * * |  | CC(C)c1nc(-c2cccnc2)n(Cc2csc3cccc(C(F)(F)F)c23)c1C(=O)O [Compound A39, 4-isopropyl-2-(pyridin-3-yl)-1-((4-(trifluoromethyl)benzo[b]thiophen-3-yl)methyl)-1H-imidazole-5-carboxylic acid] |
| * * * |  | Cc1ccc(Cl)c(Cn2c(-c3cncc(Cl)c3)nc(C)c2C(=O)O)c1 [Compound A232, 1-(2-chloro-5-methylbenzyl)-2-(5-chloropyridin-3-yl)-4-methyl-1H-imidazole-5-carboxylic acid] |
| * * * |  | O=C(O)c1c(CN2CCOCC2)nc(-c2cncc(Cl)c2)n1Cc1cc(Cl)ccc1Cl [Compound A196, 2-(5-chloropyridin-3-yl)-1-(2,5-dichlorobenzyl)-4-(morpholinomethyl)-1H-imidazole-5-carboxylic acid] |
| * * * |  | O=C(O)c1ccc(-c2cccnc2)n1Cc1csc2cccc(Cl)c12 [Compound B10, 1-((4-chlorobenzo[b]thiophen-3-yl)methyl)-2-(pyridin-3-yl)-1H-pyrrole-5-carboxylic acid] |
| * * * |  | CCc1nc(-c2cncc(Cl)c2)n(Cc2cccc3ccccc23)c1C(=O)O [Compound A149, 2-(5-chloropyridin-3-yl)-4-ethyl-1-(naphthalen-1-ylmethyl)-1H-imidazole-5-carboxylic acid] |
| * * * |  | CC(=O)c1cncc(-c2nc(C)c(C(=O)O)n2Cc2cc(Cl)ccc2Cl)c1 [Compound A183, 2-(5-acetylpyridin-3-yl)-1-(2,5-dichlorobenzyl)-4-methyl-1H-imidazole-5-carboxylic acid] |
|  | 2 to 20 µM | CCc1ccccc1Cn1c(-c2cccnc2)nc(C)c1C(=O)O [Compound A59] |
| * * |  | Cc1nc(-c2cncc(F)c2)n(Cc2csc3cccc(Cl)c23)c1C(=O)O [Compound A141, 1-((4-chlorobenzo[b]thiophen-3-yl)methyl)-2-(5-fluoropyridin-3-yl)-4-methyl-1H-imidazole-5-carboxylic acid] |
| * * |  | Cc1nc(-c2cccnc2)n(Cc2cccc(Br)c2)c1C(=O)O [Compound A55, 1-(3-bromobenzyl)-4-methyl-2-(pyridin-3-yl)-1H-imidazole-5-carboxylic acid] |
| * * |  | Cc1nc(-c2cncc(Cl)c2)n(Cc2csc3ccccc23)c1C(=O)O [Compound A132, 1-(benzo[b]thiophen-3-ylmethyl)-2-(5-chloropyridin-3-yl)-4-methyl-1H-imidazole-5-carboxylic acid] |
| * * |  | O=C(O)c1c(C2CC2)nc(-c2cccnc2)n1Cc1csc2ccccc12 [Compound A36, 1-(benzo[b]thiophen-3-ylmethyl)-4-cyclopropyl-2-(pyridin-3-yl)-1H-imidazole-5-carboxylic acid] |
| * * * |  | O=C(NS(=O)(=O)C1CC1)c1ccc(-c2cccnc2)n1Cc1cc(Cl)ccc1Cl [Compound B31, N-(cyclopropylsulfonyl)-1-(2,5-dichlorobenzyl)-2-(pyridin-3-yl)-1H-pyrrole-5-carboxamide] |
| * * * |  | O=C(O)c1c(OCC(F)(F)F)nc(-c2cccnc2)n1Cc1cc(Cl)ccc1Cl [Compound A98, 1-(2,5-dichlorobenzyl)-2-(pyridin-3-yl)-4-(2,2,2-trifluoroethoxy)-1H-imidazole-5-carboxylic acid] |
| * * * |  | CCc1cncc(-c2nc(C)c(C(=O)O)n2Cc2cc(Cl)ccc2Cl)c1 [Compound A181, 1-(2,5-dichlorobenzyl)-2-(5-ethylpyridin-3-yl)-4-methyl-1H-imidazole-5-carboxylic acid] |
| * * * |  | Cc1ccc(C)c(Cn2c(C(=O)O)ccc2-c2cccnc2)c1 [Compound B12, 1-(2,5-dimethylbenzyl)-2-(pyridin-3-yl)-1H-pyrrole-5-carboxylic acid] |
| * * * |  | Cc1cncc(-c2nc(C(C)(C)O)c(C(=O)O)n2Cc2cc(Cl)ccc2Cl)c1 [Compound A214, 1-(2,5-dichlorobenzyl)-4-(2-hydroxypropan-2-yl)-2-(5-methylpyridine-3-yl)-1H-imidazole-5-carboxylic acid] |
| * * * |  | CCc1nc(-c2cncc(F)c2)n(Cc2cc(Cl)ccc2Cl)c1C(=O)O [Compound A150, 1-(2,5-dichlorobenzyl)-4-ethyl-2-(5-fluoropyridin-3-yl)-1H-imidazole-5-carboxylic acid] |
| * * |  | Cc1nc(-c2cccnc2)n(Cc2ccc(Cl)cc2Cl)c1C(=O)O [Compound A77, 1-(2,4-dichlorobenzyl)-4-methyl-2-(pyridin-3-yl)-1H-imidazole-5-carboxylic acid] |
| * * * |  | Cc1ncccc1Oc1nc(C)c(C(=O)O)n1Cc1cc(Cl)ccc1Cl [Compound A252, 1-(2,5-dichlorobenzyl)-4-methyl-2-((2-methylpyridin-3-yl)oxy)-1H-imidazole-5-carboxylic acid] |
| * * |  | COc1cccc(-c2nc(C)c(C(=O)O)n2Cc2cccc3ccccc23)n1 [Compound A240, 2-(6-methoxypyridin-2-yl)-4-methyl-1-(naphthalen-1-ylmethyl)-1H-imidazole-5-carboxylic acid] |
| * * * |  | CC(C)c1nc(-c2cccnc2)n(Cc2csc3cccc(Cl)c23)c1C(=O)O [Compound A37, 1-((4-chlorobenzo[b]thiophen-3-yl)methyl)-4-isopropyl-2-(pyridin-3-yl)-1H-imidazole-5-carboxylic acid] |
